According to BindingDB's records for doi:10.1021/jm970110p (Universit&#233, 1998):

Target: Reverse transcriptase/RNaseH (Human immunodeficiency virus 1, UniProt Q72547)
Test: Inhibitory concentration against HIV-1 reverse transcriptase

EC50 [nM]	Structure (SMILES)
210	CCc1c(Cc2ccccc2)[n]([Au])c(=O)[nH]c1=O [6-Benzyl-5-ethyl-1-aurus-1H-pyrimidine-2,4-dione]
42	CC(C)c1c(Cc2ccccc2)[n]([Au])c(=O)[nH]c1=O [6-Benzyl-5-isopropyl-1-aurus-1H-pyrimidine-2,4-dione]
